Values of other authors as cited in patent publication US20050065219A1, “Treatment of demyelinating conditions” (priority 2003, published 2005).

Assays:
NMDA receptor channel = NMDA receptor channel (Homo sapiens, UniProt Q05586); settings: Bormann 1989
[1] = tested on: cortical and retinal neuron cultures; settings: cortical and retinal neuron cultures (Deyer et al. 1990)
[2] = rats (Keilhoff et al. 1992)
[3] = target: brain membranes ([3H]dizocilpine site) (Homo sapiens, UniProt Q05586); settings: Chen et al. 1992
[4] = tested on: nicotinic acetylcholine receptors; settings: Masou et al. 1986
[5] = tested on: 5-hydroxytryptamine 5-HT3 receptors; settings: Reiser et al. 1988
[6] = target: PCP and MK-801 binding sites of the NMDA receptor (Homo sapiens, UniProt Q05586); settings: postmortem human frontal cortex, at therapeutic concentrations (Kornhuber et al. 1989)
[7] = clinical use for many years (Kornhuber et al. 1994)

antagonism of the NMDA receptor channel (NMDA receptor channel): micromolar antagonist
[3H]dizocilpine binding to brain membranes [3]: inhibits
block of nicotinic acetylcholine receptors [4]: blocks
block of 5-HT3 receptors [5]: blocks
binding to PCP and MK-801 binding sites of the NMDA receptor [6]: binds
SMILES: CC12CC3CC(C)(C1)CC(N)(C3)C2 [memantine, 1-amino-3,5-dimethyladamantane]
protection from toxicity of glutamate, NMDA and HIV-1 coat protein gp120 [1]: protects
quinolic acid-induced hippocampal damage [2]: prevents
tolerability in clinical use [7]: well tolerated
